Assay results: patent US20080287491A1, “Tetrahydroquinoline Derivative for Treating Nicotine Craving” (priority 2003, published 2008)
“Also recorded” adds a separate entry of the source. Where a name gives a salt, the structure may show the parent alone.

How the values were obtained:
[1] = tested on: nicotine craving in smokers abstinent for 72 hours from cigarettes; assay: QSU-Brief nicotine craving questionnaire, repeated-dose three-period crossover enforced abstinence study; format: in vivo, human; settings: 31 smoker volunteers; 120 mg/day intravenously for 7 days; 72 hours of abstinence from Day 5; FIG. 1
Protocol: The ability of the compound of formula (I) or pharmaceutically acceptable salts thereof to reduce nicotine craving in smokers was measured by means of self-administered questionnaires on Smoking Craving/Urge-Brief (QSU-Brief), as described by Tiffany S T, & Christen A G Cox L S, Nicotine and Tobacco Research, 3: 7-16, 2001. The QSU-Brief is a specific craving scale that consists of 10 items scored on a scale from 1 to 7. The higher average score corresponds to the higher intensity of nicotine craving. The QSU-Brief has 2 factors: factor 1 refers to the anticipation of pleasure from smoke and factor 2 refers to anticipation of relief from negative affects of abstinence. A further study investigated nicotine craving in smokers abstinent for 72 hours from cigarettes (enforced abstinence model) receiving either repeated administrations of the compound of formula (I) as meglumine salt (Compound) or placebo. […] Each subject was exposed to 3 different experimental conditions: 1) Compound (120 mg/day) was administered intravenously for 7 days starting on Day 1 and quitted smoking abruptly on Day 5 for 72 hours (i.e. non-smoking period;) 2) Placebo was administered intravenously for 7 days starting on Day 1 and quitted smoking abruptly on Day 5 for 72 hours (i.e. non-smoking period;) 3) allowed to smoke for 7 consecutive days (i.e. free smoking period). […]

[2] = tested on: nicotine craving in smokers abstinent for 3 days from cigarettes; assay: QSU-Brief nicotine craving questionnaire, single-dose enforced abstinence study; format: in vivo, human; settings: single dose 120 mg iv
Protocol: The ability of the compound of formula (I) or pharmaceutically acceptable salts thereof to reduce nicotine craving in smokers was measured by means of self-administered questionnaires on Smoking Craving/Urge-Brief (QSU-Brief), as described by Tiffany S T, & Christen A G Cox L S, Nicotine and Tobacco Research, 3: 7-16, 2001. The QSU-Brief is a specific craving scale that consists of 10 items scored on a scale from 1 to 7. The higher average score corresponds to the higher intensity of nicotine craving. The QSU-Brief has 2 factors: factor 1 refers to the anticipation of pleasure from smoke and factor 2 refers to anticipation of relief from negative affects of abstinence. The study investigated nicotine craving in smokers abstinent for 3 days from cigarettes (enforced abstinence model) receiving either a single dose 120 mg iv of the compound of formula (I) as meglumine salt (Compound) or a single dose of placebo. Self-administered questionnaires (QSU-Brief), were administered at pre-dose and 3, 6 and 12 hours post dose to evaluate craving.

O=C(O)[C@H]1C/C(=C2/CCN(c3ccccc3)C2=O)c2ccc(Cl)cc2N1 [Compound, (2R,4E)-7-chloro-4-(2-oxo-1-phenyl-3-pyrrolidinylidene)-1,2,3,4-tetrahydro-2-quinolinecarboxylic acid, (2R,3R,4R,5S)-6-methylamino-hexane-1,2,3,4,5-pentanol (meglumine) salt (form 2)]
Nicotine craving level (QSU-Brief) compared with placebo [1]: showed reduction in nicotine craving; also recorded: reduced the nicotine craving level | QSU-Brief: Craving Factor 2 (average during abstinence) ([2]; QSU-Brief items scored 1 to 7, pre-dose and 3, 6 and 12 hours post dose, placebo 4.0): 3.6 | Average craving factor 2 compared with placebo ([2]; versus abstinent smokers receiving placebo): significant average lower craving factor 2
